This is an account of results in US20210393742A1, “LONG-ACTING INTERLEUKIN-15 RECEPTOR AGONIST IN COMBINATION WITH ANOTHER PHARMACOLOGICALLY ACTIVE AGENT” (Nektar Therapeutics, priority 2018, published 2021).

The subject of assay [1] is Daudi B cell lymphoma. In words: NK cell counts, Daudi cell counts and granzyme B in bone marrow, Daudi xenograft model, combination with daratumumab (Example 2). The format is in vivo, mice. Here is the method:
SCID mice (N=6/group) were intravenously inoculated with 1×10^7 Daudi cells on Day 0 and treated with a single dose of the anti-human CD38 antibody, daratumumab (0.5 mg/kg IP, 14 days following Daudi cell inoculation) and two doses of mono(methoxyPEG-N-butanamide)interleukin-15 (0.3 mg/kg SC, one dose at each of 14 and 21 days after inoculation). Mice were also treated with the single agent therapies: daratumumab (0.5 mg/kg IP, 14 days following Daudi cell inoculation) or two doses of mono(methoxyPEG-N-butanamide)40 kD interleukin-15 (0.3 mg/kg SC, 14 and 21 days after inoculation).
(One-way ANOVA, Tukey's multiple comparison test).

Assay [2] has as its system human B cell lymphoma (Daudi) cells. Nature of the assay: ADCC of rituximab-coated target cells by primed human NK cells (Example 12). It is filed as cell-based. Conditions: NK cells primed with 300 ng/mL overnight; rituximab 10 ng/mL; E:T 2:1, 3 hr. Here is the method: Human NK cells were magnetically sorted from normal donor PBMCs using negative selection. NK cells were seeded in a 96-well U-bottom plate at a density of 80,000 cells/well (FIG. 15A) OR 400,000 cells/well (FIG. 15B). NK cells were stimulated with 300 ng/mL of a long-acting IL-15 receptor agonist (mono(mPEG-butanamide)IL-15) (+) or left unstimulated (−) in complete RPMI-1640 media supplemented with 10% fetal bovine serum (FBS) and 1% antibiotic/antimycotic overnight at 37° C. in 5% CO2.
Alternatively, the human B cell lymphoma (Daudi) cells were washed in PBS and stained with 0.3 μM CFSE for 5 min at 37° C. The rituximab-coated (+10 ng/mL) CFSE-labeled tumor (target cells) cells were concurrently co-cultured with the NK cells (effector cells) in an E:T ratio of 2:1 for 3 hr at 37° C. in 5% CO2. Following incubation, cells were washed in flow staining buffer, Fc-blocked for 15 min at 4° C., and surface-stained (CD45, CD56, CD3-fluorescently conjugated antibodies). The cells were washed in PBS and incubated in 7-aminoactinomycin (7-AAD) viability stain for 30 minutes at 4° C. before acquiring for flow cytometric analysis using a Fortessa (BD). The percentage of 7-AAD+ CFSE+ target cells from total cell population is the percentage for dead tumor cells.

Assay [3] deals with NCI-N87 cells. Nature of the assay: Tumor growth inhibition in NCI-N87 gastric carcinoma model (Example 22). The format is in vivo, mice. The conditions noted are these: 25 days after treatment initiation; trastuzumab 3/1/1 mg/kg IV; Compound 1 0.3 mg/kg IV x3. Here is the method: Tumor growth inhibition in inoculated mice was measured 25 days after treatment initiation. Results are provided graphically in FIG. 25.

As for “mono(methoxyPEG-N-butanamide)40 kD interleukin-15 [Conjugate 1]”, the “granzyme B expression in bone marrow NK cells” value in assay [1] (alone or in combination with daratumumab) is reported as “increase granzyme B expression”. Further, the “increase in NK cell count in bone marrow” value in assay [1] (day 24, agonist 0.3 mg/kg SC days 14 and 21, daratumumab 0.5 mg/kg IP day 14) turned out to be 10 fold. Also, the “ADCC, % 7-AAD+ target cells” value in assay [2] was “enhance ADCC”. Moreover, the tumor growth inhibition entry in assay [3] is given as “no tumor growth inhibition”.
